From publication PMC9866191, “Novel 9-Benzylaminoacridine Derivatives as Dual Inhibitors of Phosphodiesterase 5 and Topoisomerase II for the Treatment of Colon Cancer” (Molecules, 2023)

Assays:
CCD-966SK = assay: MTT cell proliferation assay, CCD-966SK; settings: CCD966SK skin fibroblast; 10 µM; 72 h MTT
HOP-62 = assay: NCI-60 one-dose screen; assay type: cell-based; settings: Homo sapiens; HOP-62, Non-small cell lung panel; single dose 10^−5 M; read-out: Growth inhibition %
A549/ATCC = assay: NCI-60 one-dose screen; assay type: cell-based; settings: Homo sapiens, Non-small cell lung panel, single dose 10^−5 M, read-out: Growth inhibition %
NCI-H226 = assay: NCI-60 one-dose screen; assay type: cell-based; settings: Homo sapiens; NCI-H226, Non-small cell lung panel; single dose 10^−5 M; read-out: Growth inhibition %
MDA-MB-231/ATCC = assay: NCI-60 one-dose screen; assay type: cell-based; settings: Homo sapiens, Breast Cancer panel, single dose 10^−5 M, read-out: Growth inhibition %
DU-145 = assay: NCI-60 one-dose screen; assay type: cell-based; settings: Homo sapiens; DU-145, Prostate Cancer panel; single dose 10^−5 M; read-out: Growth inhibition %
NCI-H460 = assay: NCI-60 one-dose screen; assay type: cell-based; settings: Homo sapiens; NCI-H460, Non-small cell lung panel; single dose 10^−5 M; read-out: Growth inhibition %
OVCAR-4 = assay: NCI-60 one-dose screen; assay type: cell-based; settings: Homo sapiens; OVCAR-4, Ovarian Cancer panel; single dose 10^−5 M; read-out: Growth inhibition %
PC-3 = assay: NCI-60 one-dose screen; assay type: cell-based; settings: Homo sapiens; PC-3, Prostate Cancer panel; single dose 10^−5 M; read-out: Growth inhibition %
HCT-116 = assay: NCI-60 one-dose screen; assay type: cell-based; settings: Homo sapiens, read-out: Growth inhibition %
NCI-H23 = assay: NCI-60 one-dose screen; assay type: cell-based; settings: Homo sapiens; NCI-H23, Non-small cell lung panel; single dose 10^−5 M; read-out: Growth inhibition %
A498 = assay: NCI-60 one-dose screen; assay type: cell-based; settings: Homo sapiens; A498, Renal Cancer panel; single dose 10^−5 M; read-out: Growth inhibition %
786-0 = assay: NCI-60 one-dose screen; assay type: cell-based; settings: Homo sapiens; 786-0, Renal Cancer panel; single dose 10^−5 M; read-out: Growth inhibition %
MOLT-4 = assay: NCI-60 one-dose screen; assay type: cell-based; settings: Homo sapiens; MOLT-4, Leukemia panel; single dose 10^−5 M; read-out: Growth inhibition %
RPMI-8226 = assay: NCI-60 one-dose screen; assay type: cell-based; settings: Homo sapiens; RPMI-8226, Leukemia panel; single dose 10^−5 M; read-out: Growth inhibition %
NCI-H322M = assay: NCI-60 one-dose screen; assay type: cell-based; settings: Homo sapiens, Non-small cell lung panel, single dose 10^−5 M, read-out: Growth inhibition %
HL-60(TB) = assay: NCI-60 one-dose screen; assay type: cell-based; settings: Homo sapiens, Leukemia panel, single dose 10^−5 M, read-out: Growth inhibition %
EKVX = assay: NCI-60 one-dose screen; assay type: cell-based; settings: Homo sapiens, Non-small cell lung panel, single dose 10^−5 M, read-out: Growth inhibition %
HS 578T = assay: NCI-60 one-dose screen; assay type: cell-based; settings: Homo sapiens, Breast Cancer panel, single dose 10^−5 M, read-out: Growth inhibition %
TK-10 = assay: NCI-60 one-dose screen; assay type: cell-based; settings: Homo sapiens; TK-10, Renal Cancer panel; single dose 10^−5 M; read-out: Growth inhibition %
SF-539 = assay: NCI-60 one-dose screen; assay type: cell-based; settings: Homo sapiens; SF-539, CNS Cancer panel; single dose 10^−5 M; read-out: Growth inhibition %
RXF 393 = assay: NCI-60 one-dose screen; assay type: cell-based; settings: Homo sapiens; RXF 393, Renal Cancer panel; single dose 10^−5 M; read-out: Growth inhibition %
MDA-MB-468 = assay: NCI-60 one-dose screen; assay type: cell-based; settings: Homo sapiens; MDA-MB-468, Breast Cancer panel; single dose 10^−5 M; read-out: Growth inhibition %
UACC-62 = assay: NCI-60 one-dose screen; assay type: cell-based; settings: Homo sapiens; UACC-62, Melanoma panel; single dose 10^−5 M; read-out: Growth inhibition %
BT-549 = assay: NCI-60 one-dose screen; assay type: cell-based; settings: Homo sapiens; BT-549, Breast Cancer panel; single dose 10^−5 M; read-out: Growth inhibition %
MALME-3M = assay: NCI-60 one-dose screen; assay type: cell-based; settings: Homo sapiens, Melanoma panel, single dose 10^−5 M, read-out: Growth inhibition %
OVCAR-5 = assay: NCI-60 one-dose screen; assay type: cell-based; settings: Homo sapiens; OVCAR-5, Ovarian Cancer panel; single dose 10^−5 M; read-out: Growth inhibition %
UO-31 = assay: NCI-60 one-dose screen; assay type: cell-based; settings: Homo sapiens; UO-31, Renal Cancer panel; single dose 10^−5 M; read-out: Growth inhibition %
SNB-19 = assay: NCI-60 one-dose screen; assay type: cell-based; settings: Homo sapiens; SNB-19, CNS Cancer panel; single dose 10^−5 M; read-out: Growth inhibition %
MCF7 = assay: NCI-60 one-dose screen; assay type: cell-based; settings: Homo sapiens; MCF7, Breast Cancer panel; single dose 10^−5 M; read-out: Growth inhibition %
HT29 = assay: NCI-60 one-dose screen; assay type: cell-based; settings: Homo sapiens, HT-29; HT29, Colon Cancer panel; single dose 10^−5 M; read-out: Growth inhibition %
OVCAR-8 = assay: NCI-60 one-dose screen; assay type: cell-based; settings: Homo sapiens; OVCAR-8, Ovarian Cancer panel; single dose 10^−5 M; read-out: Growth inhibition %

SMILES | % Inhibition at 10 µM (CCD-966SK) | inhibition at 10 µM (HOP-62) | inhibition at 10 µM (A549/ATCC) | inhibition at 10 µM (NCI-H226) | inhibition at 10 µM (MDA-MB-231/ATCC) | inhibition at 10 µM (DU-145) | inhibition at 10 µM (NCI-H460) | inhibition at 10 µM (OVCAR-4) | inhibition at 10 µM (PC-3) | inhibition at 10 µM (HCT-116) | inhibition at 10 µM (NCI-H23) | inhibition at 10 µM (A498) | inhibition at 10 µM (786-0) | inhibition at 10 µM (MOLT-4) | inhibition at 10 µM (RPMI-8226) | inhibition at 10 µM (NCI-H322M) | inhibition at 10 µM (HL-60(TB)) | inhibition at 10 µM (EKVX) | inhibition at 10 µM (HS 578T) | inhibition at 10 µM (TK-10) | other results
COc1ccc(CNc2c3ccccc3nc3ccccc23)cc1 [Compound 7, Acridin-9-yl-(4-methoxybenzyl)-amine] | 13.09 ± 2.52% | 46.1% | 71.1% | 48.6% | 52.6% | 52% | 90.3% | 59.7% | 66% | 90.5% | 61.2% | 90% | 67.6% | 90.6% | 84.2% | 52.9% | 57% | 50.3% | 42% | 50.5% | inhibition at 10 µM (SF-539): 72.5%; inhibition at 10 µM (RXF 393): 72.4%; inhibition at 10 µM (MDA-MB-468): 72.9%; inhibition at 10 µM (UACC-62): 44.2%; inhibition at 10 µM (BT-549): 19.9%; inhibition at 10 µM (MALME-3M): 60%; inhibition at 10 µM (OVCAR-5): 53.6%; inhibition at 10 µM (UO-31): 77.9%; inhibition at 10 µM (SNB-19): 66%; inhibition at 10 µM (MCF7): 87.4%; inhibition at 10 µM (HT29): 80.7%; inhibition at 10 µM (OVCAR-8): 72.3%
COc1ccc(CNc2c3ccccc3nc3ccccc23)c(OC)c1 [Compound 17, Acridin-9-yl-(2,4-dimethoxybenzyl)-amine] | 35.11 ± 0.42% | 52.8% | 64.8% | 53.7% | 56.4% | 50.6% | 83.3% | 60.3% | 52.9% | 87.2% | 65.1% | 111% | 60.9% | 81.5% | 65.1% | 60% | 63.1% | 48.9% | 31.1% | 45.6% | inhibition at 10 µM (SF-539): 85.4%; inhibition at 10 µM (RXF 393): 66.6%; inhibition at 10 µM (MDA-MB-468): 95.2%; inhibition at 10 µM (UACC-62): 45.5%; inhibition at 10 µM (BT-549): 33.3%; inhibition at 10 µM (MALME-3M): 33%; inhibition at 10 µM (OVCAR-5): 49.7%; inhibition at 10 µM (UO-31): 72%; inhibition at 10 µM (SNB-19): 66.5%; inhibition at 10 µM (MCF7): 85.5%; inhibition at 10 µM (HT29): 86.2%; inhibition at 10 µM (OVCAR-8): 62.2%
COc1ccc(CNc2c3ccccc3nc3ccccc23)cc1OC [Compound 18, Acridin-9-yl-(3,4-dimethoxybenzyl)-amine] | 32.27 ± 0.58% | 65.5% | 83.7% | 72% | 80.6% | 75.3% | 93.8% | 78.6% | 78% | 87.8% | 84.9% | 112% | 74.6% | 89.4% | 99.4% | 70.2% | 87.3% | 84.8% | 62.8% | 67.7% | inhibition at 10 µM (SF-539): 84.7%; inhibition at 10 µM (RXF 393): 96.4%; inhibition at 10 µM (MDA-MB-468): 123%; inhibition at 10 µM (UACC-62): 73.2%; inhibition at 10 µM (BT-549): 57.9%; inhibition at 10 µM (MALME-3M): 92.1%; inhibition at 10 µM (OVCAR-5): 72.5%; inhibition at 10 µM (UO-31): 87.9%; inhibition at 10 µM (SNB-19): 78.2%; inhibition at 10 µM (MCF7): 99.3%; inhibition at 10 µM (HT29): 95.6%; inhibition at 10 µM (OVCAR-8): 76.2%
COc1ccc(CNc2c3ccccc3nc3ccccc23)cc1F [Compound 19, Acridin-9-yl-(3-fluoro-4-methoxybenzyl)-amine] | 41.77 ± 0.99% | 55.5% | 77.2% | 57% | 70.8% | 72.8% | 93.7% | 73.8% | 69.5% | 87.7% | 73% | 106% | 74% | 91.1% | 106% | 68.3% | 87.1% | 73.9% | 54.5% | 63.9% | inhibition at 10 µM (SF-539): 81.8%; inhibition at 10 µM (RXF 393): 88.9%; inhibition at 10 µM (MDA-MB-468): 119%; inhibition at 10 µM (UACC-62): 57.5%; inhibition at 10 µM (BT-549): 50.5%; inhibition at 10 µM (MALME-3M): 76.4%; inhibition at 10 µM (OVCAR-5): 63.1%; inhibition at 10 µM (UO-31): 86.5%; inhibition at 10 µM (SNB-19): 72%; inhibition at 10 µM (MCF7): 97.7%; inhibition at 10 µM (HT29): 87.8%; inhibition at 10 µM (OVCAR-8): 70.6%
COc1ccc(CNc2c3ccccc3nc3ccc(OC)cc23)cc1 [Compound 27, (2-Methoxyacridin-9-yl)-(4-methoxybenzyl)-amine] | 19.04 ± 3.94% | 65.9% | 85.4% | 66.2% | 76.4% | 80% | 93.5% | 81.6% | 94.5% | 87.3% | 78.6% | 106% | 85% | 100% | 148% | 76.5% | 121% | 75.8% | 74.1% | 66.4% | inhibition at 10 µM (SF-539): 91.5%; inhibition at 10 µM (RXF 393): 103%; inhibition at 10 µM (MDA-MB-468): 115%; inhibition at 10 µM (UACC-62): 57.4%; inhibition at 10 µM (BT-549): 57%; inhibition at 10 µM (MALME-3M): 92.9%; inhibition at 10 µM (OVCAR-5): 69.3%; inhibition at 10 µM (UO-31): 93.8%; inhibition at 10 µM (SNB-19): 77.3%; inhibition at 10 µM (MCF7): 130%; inhibition at 10 µM (HT29): 103%; inhibition at 10 µM (OVCAR-8): 74.6%
